Experimental data as given in PubChem BioAssay (NCI).
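Dose response: 5 concentrations. Exposure: 48 h. Format: 96-well plates. Endpoint: linear interpolation; highest concentration if not reached. The concentration for full growth arrest is given as TGI.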

Assays:
Test in all cases: NCI-60 cell line screen, 48 h
EKVX NSCLC = tested on: EKVX NSCLC
SNB-75 CNS = tested on: SNB-75 CNS
OVCAR-3 ovarian = tested on: OVCAR-3 ovarian
NCI-H522 lung = tested on: NCI-H522 lung
786-0 renal = tested on: 786-0 renal
SN12C renal = tested on: SN12C renal
PC-3 prostate = tested on: PC-3 prostate
HOP-92 NSCLC = tested on: HOP-92 NSCLC
HOP-62 NSCLC = tested on: HOP-62 NSCLC
NCI-H23 lung = tested on: NCI-H23 lung
BT-549 breast = tested on: BT-549 breast
SW-620 colon = tested on: SW-620 colon
RPMI-8226 leukemia = tested on: RPMI-8226 leukemia
UO-31 renal = tested on: UO-31 renal
UACC-257 melanoma = tested on: UACC-257 melanoma
OVCAR-4 ovarian = tested on: OVCAR-4 ovarian
TK-10 renal = tested on: TK-10 renal
RXF 393 renal = tested on: RXF 393 renal
NCI-H460 lung = tested on: NCI-H460 lung
SK-OV-3 ovarian = tested on: SK-OV-3 ovarian
HT29 colon = tested on: HT29 colon
OVCAR-5 ovarian = tested on: OVCAR-5 ovarian
MOLT-4 leukemia = tested on: MOLT-4 leukemia
K-562 leukemia = tested on: K-562 leukemia
HCT-116 colon = tested on: HCT-116 colon
SK-MEL-5 melanoma = tested on: SK-MEL-5 melanoma
KM12 colon = tested on: KM12 colon
HCT-15 colon = tested on: HCT-15 colon
SK-MEL-2 melanoma = tested on: SK-MEL-2 melanoma
CAKI-1 renal = tested on: CAKI-1 renal
SF-295 CNS = tested on: SF-295 CNS
SF-268 CNS = tested on: SF-268 CNS
SK-MEL-28 melanoma = tested on: SK-MEL-28 melanoma
SF-539 CNS = tested on: SF-539 CNS
DU-145 prostate = tested on: DU-145 prostate
OVCAR-8 ovarian = tested on: OVCAR-8 ovarian
HCC-2998 colon = tested on: HCC-2998 colon
A549 NSCLC = tested on: A549 NSCLC
UACC-62 melanoma = tested on: UACC-62 melanoma
NCI-H226 lung = tested on: NCI-H226 lung
CCRF-CEM leukemia = tested on: CCRF-CEM leukemia
NCI/ADR-RES ovarian = tested on: NCI/ADR-RES ovarian
MDA-MB-231 breast = tested on: MDA-MB-231 breast
COLO 205 colon = tested on: COLO 205 colon
SNB-19 CNS = tested on: SNB-19 CNS
T-47D breast = tested on: T-47D breast
MCF7 breast = tested on: MCF7 breast
MDA-N = tested on: MDA-N
ACHN renal = tested on: ACHN renal
HL-60(TB) leukemia = tested on: HL-60(TB) leukemia
M14 melanoma = tested on: M14 melanoma
A498 renal = tested on: A498 renal
HS 578T breast = tested on: HS 578T breast
MDA-MB-435 = tested on: MDA-MB-435
LOX IMVI melanoma = tested on: LOX IMVI melanoma
U251 CNS = tested on: U251 CNS
IGROV1 ovarian = tested on: IGROV1 ovarian
SR leukemia = tested on: SR leukemia
MALME-3M melanoma = tested on: MALME-3M melanoma

Measured: TGI

COC1(c2cccs2)c2ccccc2C(OC)(c2cccs2)c2ccccc21 (centres undefined)
19.8 µM: HS 578T breast
83.4 µM: A498 renal
> 100 µM: all other assays above
